Experimental data as given in patent US20140315886A1, “QUINAZOLINES AS THERAPEUTIC COMPOUNDS AND RELATED METHODS OF USE” (OTSUKA PHARMACEUTICAL CO., LTD., priority 2011, published 2014).
Where a name gives a salt, the structure may show the parent alone.

What follows are compounds tested against T1, purified STEP46 enzyme (Homo sapiens, UniProt P54829) (assay: STEP46 biochemical assay (DiFMUP fluorescence phosphatase assay)). Conditions: DiFMUP 10 μM, read-out: STEP IC50.
T1 sequence (P54829 197-565 limits assumed): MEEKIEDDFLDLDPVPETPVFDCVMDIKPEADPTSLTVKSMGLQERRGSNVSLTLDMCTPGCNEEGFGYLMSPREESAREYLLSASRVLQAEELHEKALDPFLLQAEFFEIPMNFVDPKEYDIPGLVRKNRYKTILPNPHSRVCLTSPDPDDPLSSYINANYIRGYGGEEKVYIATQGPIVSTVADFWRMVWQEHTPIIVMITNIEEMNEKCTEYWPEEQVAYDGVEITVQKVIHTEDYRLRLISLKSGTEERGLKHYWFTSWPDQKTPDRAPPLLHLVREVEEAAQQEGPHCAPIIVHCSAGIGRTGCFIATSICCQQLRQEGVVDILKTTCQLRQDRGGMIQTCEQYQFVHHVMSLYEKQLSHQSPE
Outline: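 Purified human STEP46 preincubated 30 min at room temperature with compounds in Hepes/DTT/Brij35 buffer (2% DMSO final), then reacted with 10 μM DiFMUP for 90 min at 27°C; fluorescence read at 360/460 nm. IC50 from four-parameter fit; activation shown as negative % inhibition at 25, 50, 100 uM.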

SMILES | IC50 [µM]
CNc1nc(-c2cccnc2)nc2c(C)c(-c3ccccc3C)ccc12 [Compound 297] | > 10
CNc1nc(-c2cccnc2)nc2c(F)c(-c3csc4ccccc34)ccc12 [Compound 537] | 1 to 10
Fc1ccc(-c2ccc3c(N4CCc5ccccc54)nc(-c4cccnc4)nc3c2)c(F)c1 [Compound 103] | 1 to 10
c1ccc(CNc2nc(-c3cccnc3)nc3ccc(-c4cc5ccccc5o4)cc23)nc1 [Compound 343] | < 1
O=[N+]([O-])c1cccc(-c2ccc3nc(-c4cccnc4)nc(N4CCc5cc(Cl)ccc54)c3c2)c1 [Compound 82] | 1 to 10
COc1ccc2nc(-c3cccnc3)nc(-n3ccc4cccnc43)c2c1 [Compound 41] | 1 to 10
CNc1nc(-c2cccnc2)nc2c(F)c(-c3ccc4[nH]ncc4c3)ccc12 [Compound 535] | 1 to 10
Fc1ccc(-c2ccc3c(N4CCc5cc(Cl)ccc54)nc(-c4cccnc4)nc3c2)c(F)c1 [Compound 94] | 1 to 10
CCOc1ccc2nc(-c3ccnnc3)nc(Nc3ccccc3C(N)=O)c2c1 [Compound 71] | 1 to 10
Fc1ccc(-c2ccc3nc(-c4cccnc4)nc(Nc4cncc(F)c4)c3c2)cc1 [Compound 440] | 1 to 10
CNc1nc(-c2cccnc2)nc2ccc(-c3ccc(CO)cc3)cc12 [Compound 173] | 1 to 10
CNc1nc(-c2cccnc2)nc2c(F)cc(-c3cccc(OC)c3)cc12 [Compound 574] | 1 to 10
CNc1nc(-c2cccnc2)nc2ccc(-c3cccc(S(C)(=O)=O)c3)cc12 [Compound 245] | > 10
Fc1ccc(CNc2nc(-c3cccnc3)nc3ccc(-c4cccc(F)c4F)cc23)cc1F [Compound 361] | > 10
CNc1nc(-c2cccnc2)nc2ccc(-c3nnc(C)s3)cc12 [Compound 472] | > 10
CNc1nc(-c2ccnnc2)nc2ccc(-c3cccc(F)c3)cc12 [Compound 212] | > 10
CC(Nc1nc(-c2cccnc2)nc2cc(-c3ccccc3F)ccc12)c1ccccn1 (stereo not shown) [Compound 371] | < 1
Fc1ccc(-c2ccc3nc(-c4cccnc4)nc(N4CC(F)(F)C4)c3c2)c(F)c1 [Compound 415] | > 10
CNc1nc(-c2cccnc2)nc2c(OC)cc(-c3ccc(F)cc3)cc12 [Compound 259] | > 10
CNc1nc(-c2cccnc2)nc2c(C)c(-c3ccc4c(cnn4C)c3)ccc12 [Compound 298] | < 1
Clc1ccc2c(c1)CCN2c1nc(-c2cccnc2)nc2cc(-c3cncnc3)ccc12 [Compound 101] | < 1
COc1ccc2nc(-c3cccnc3)nc(Nc3ccc(F)nc3)c2c1 [Compound 35] | 1 to 10
Fc1cccc(-c2ccc3nc(-c4cccnc4)nc(NCc4ccccn4)c3c2)c1 [Compound 373] | > 10
COc1ccc2nc(-c3cccnc3)nc(Nc3cc(F)ccn3)c2c1 [Compound 31] | 1 to 10
CNc1nc(-c2cccnc2)nc2c(F)c(-c3ccsc3)ccc12 [Compound 527] | 1 to 10
Cc1c(-c2cc(F)c(F)c(F)c2)ccc2c(N(C)C)nc(-c3cccnc3)nc12 [Compound 292] | 1 to 10
Cc1ccc(Nc2nc(-c3cccnc3)nc3ccc(Cl)cc23)nc1 [Compound 57] | 1 to 10

SMILES | IC50 [µM]
CNc1nc(-c2cccnc2)nc2c(F)c(-c3cccc(C)c3)ccc12 [Compound 525] | 1 to 10
COc1ccc2nc(-c3cccnc3)nc(Nc3ccc(F)cn3)c2c1 [Compound 24] | 1 to 10
CNc1nc(-c2cccnc2)nc2c(OC)cc(-c3ccccc3Cl)cc12 [Compound 306] | 1 to 10
Clc1cncc(Nc2nc(-c3cccnc3)nc3ccc(Cl)cc23)c1 [Compound 70] | < 1
c1ccc(CNc2nc(-c3cccnc3)nc3ccc(-c4cccs4)cc23)nc1 [Compound 601] | 1 to 10
CNc1nc(-c2cccnc2)nc2c(OC)cc(-c3ccccc3OC)cc12 [Compound 207] | 1 to 10
CCOc1ccc2nc(-c3cccnc3)nc(N3CCc4ccc(Cl)cc43)c2c1 [Compound 5] | 1 to 10
Cc1ccc2c(c1)CCN2c1nc(-c2cccnc2)nc2cc(Br)ccc12 [Compound 16] | 1 to 10
COc1ccc2nc(-c3cccnc3)nc(N3CCc4cc(Br)ccc43)c2c1 [Compound 6] | > 10
Fc1ccc(-c2ccc3nc(-c4cccnc4)nc(N4CCC4)c3c2)c(F)c1 [Compound 411] | 1 to 10
CNC(=O)c1cc(-c2ccc3nc(-c4cccnc4)nc(NC)c3c2)ccc1F [Compound 180] | 1 to 10
CC(Nc1nc(-c2cccnc2)nc2cc(-c3ccc(F)c(F)c3)ccc12)c1ccccn1 (stereo not shown) [Compound 369] | 1 to 10
FCCNc1nc(-c2cccnc2)nc2ccc(-c3cccc(F)c3F)cc12 [Compound 406] | > 10
CNc1nc(-c2cccnc2)nc2ccc(-c3ccc(S(=O)(=O)C(C)C)cc3)cc12 [Compound 256] | > 10
CNc1nc(-c2cccnc2)nc2c(OC)cc(-c3ccc(OC)cc3)cc12 [Compound 208] | 1 to 10
CNc1nc(-c2cnccn2)nc2ccc(-c3ccc(F)cc3F)c(F)c12 [Compound 976] | 1 to 10
COC1CN(c2nc(-c3cccnc3)nc3ccc(-c4ccc(F)cc4F)cc23)C1 [Compound 413] | 1 to 10
CNc1nc(-c2cccnc2)nc2c(-c3cccc(C#N)c3)ccc(OC)c12 [Compound 489, 3—(5-methoxy-4-(methylamino)-2-(pyridin-3-yl)quinazolin-8-yl)benzonitrile dihydrochloride] | 1 to 10
Fc1cccc(-c2ccc3nc(-c4cccnc4)nc(NCCc4ccccn4)c3c2)c1 [Compound 336] | 1 to 10
Fc1ccc(-c2ccc3nc(-c4cccnc4)nc(N4CCc5ccccc54)c3c2)cc1 [Compound 88] | 1 to 10
Brc1ccc2nc(-c3cccnc3)nc(N3CCc4ccccc43)c2c1 [Compound 19] | 1 to 10
Fc1ccc(-c2ccc3nc(-c4cccnc4)nc(N4CC(n5cccn5)C4)c3c2)c(F)c1 [Compound 420] | > 10
Fc1cccc(-c2ccc3nc(-c4cccnc4)nc(N4CCc5cc(Cl)ccc54)c3c2)c1F [Compound 75] | 1 to 10
CNc1nc(-c2cccnc2)nc2ccc(-c3ncco3)cc12 [Compound 178] | > 10
Fc1ccc(-c2ccc3nc(-c4cccnc4)nc(N4CCc5cccnc54)c3c2)cc1 [Compound 443] | 1 to 10
CNC(=O)C1CN(c2nc(-c3cccnc3)nc3ccc(-c4ccc(F)cc4F)cc23)C1 [Compound 423] | 1 to 10
CNc1nc(-c2cccnc2)nc2ccc(-c3cccc4oc(=O)[nH]c34)cc12 [Compound 476] | < 1

Second part, the compound after the results:

IC50 [µM] | SMILES
1 to 10 | CNc1nc(-c2cccnc2)nc2cc(-c3cc(F)ccc3OC)ccc12 [Compound 316]
> 10 | CNc1nc(-c2cccnc2)nc2c(C)c(-c3cc(F)c(F)cc3F)ccc12 [Compound 287]
1 to 10 | CNc1nc(-c2cccnc2)nc2cc(-c3cccc(C#N)c3)c(F)cc12 [Compound 556]
> 10 | CNc1nc(-c2cccnc2)nc2ccc(-c3ccc(OC)cc3C(F)(F)F)cc12 [Compound 249]
1 to 10 | CNc1nc(-c2ccc(F)nc2)nc2cc(-c3cc(F)ccc3F)ccc12 [Compound 156]
1 to 10 | CNc1nc(-c2cccnc2)nc2c(-c3ccc(F)c(F)c3)cccc12 [Compound 278]
1 to 10 | CNc1nc(-c2cccnc2)nc2c(OC)cc(-c3cc(F)ccc3F)cc12 [Compound 252]
1 to 10 | CNc1nc(-c2cccnc2)nc2c(C)c(-c3ccc(F)c(F)c3F)ccc12 [Compound 286]
1 to 10 | CNc1nc(-c2cccnc2)nc2cc(-c3cccc(OC)c3F)ccc12 [Compound 215]
1 to 10 | CNc1nc(-c2cccnc2)nc2cc(-c3cc(OC)ccc3F)ccc12 [Compound 219]
< 1 | CNc1nc(-c2cccnc2)nc2ccc(-c3ccc(F)c4ccoc34)cc12 [Compound 233]
< 1 | CNc1nc(-c2cccnc2)nc2cc(F)c(-c3ccc(F)c(F)c3)cc12 [Compound 591]
1 to 10 | CNc1nc(-c2cncc(C#N)c2)nc2cc(-c3cc(F)ccc3F)ccc12 [Compound 163]
1 to 10 | CNc1nc(-c2cccnc2)nc2c(F)cc(-c3cc(F)ccc3F)cc12 [Compound 572]
1 to 10 | CNc1nc(-c2cccnc2)nc2cc(OC(F)(F)F)c(-c3cccc(F)c3)cc12 [Compound 209]
> 10 | CNc1nc(-c2cccnc2)nc2c(-c3cc(F)cc(F)c3)cccc12 [Compound 277]
1 to 10 | CNc1nc(-c2cccnc2)nc2ccc(-c3c(F)cccc3Cl)cc12 [Compound 241]
1 to 10 | CNc1nc(-c2cccnc2)nc2c(OC)cc(-c3cc(F)cc(F)c3)cc12 [Compound 204]
1 to 10 | CNc1nc(-c2cncc(C)c2)nc2cc(-c3cc(F)ccc3F)ccc12 [Compound 160]
1 to 10 | CNc1nc(-c2cccnc2)nc2ccc(-c3cc(OC(F)(F)F)ccc3F)cc12 [Compound 263]
1 to 10 | CNc1nc(-c2cccnc2)nc2cc(F)c(-c3cc(F)cc(F)c3)cc12 [Compound 588]
1 to 10 | CNc1nc(-c2cncc(OC)c2)nc2cc(-c3cc(F)ccc3F)ccc12 [Compound 162]
1 to 10 | CNc1nc(-c2cccnc2)nc2ccc(-c3c(F)cc(F)cc3F)cc12 [Compound 457]
1 to 10 | CNc1nc(-c2cccnc2)nc2cc(C)c(-c3ccc(F)c(F)c3F)cc12 [Compound 301]
1 to 10 | CNc1nc(-c2cccnc2)nc2cc(OC)c(-c3cccc(F)c3F)cc12 [Compound 230]
